“And” between values parts separate entries of the source, which are not always exact repeats. Equal values may be shown once. Read-outs that look alike come from different tables or passages of the source.
Assays:
Assay type in all cases: cell-based
[1] = tested on: Colon HCT116 (MMR mutated); assay: MTT assay for 7-day toxicity assay; details: Colon HCT116 (MMR mutated), 7-day MTT, single determinations, read-out: GI50
Method: (§1) The cell culture techniques were carried out in a Class II microbiological safety cabinet which was swabbed with 70% IMS in distilled water before each use. Glioma cells were routinely cultured in Costar tissue culture flasks in RPMI 1640 liquid medium (containing 0.3 g/L L-glutamine and 2 g/L sodium bicarbonate) supplemented with 10% heat inactivated FBS (55-59° C.) for 1 hour to denature complement proteins which would otherwise evoke a cellular immune response resulting in cell lysis, 1% non-essential amino acids, 50 μg/mL gentamicin and 400 μg/mL G418 (vector selected reagent). Colorectal and melanoma cells were maintained in RPMI 1640 supplemented with 10% FBS. MRC-5 cells were cultured in EMEM. Cells were grown in a humidified incubator containing 5% CO2 at 37° C. Cells were sub-cultured when growth exceeded approximately 80% confluence, normally twice weekly. The medium was aspirated from the flask and approximately 0.8 mL trypsin-EDTA 1× solution added. The cells were re-incubated at 37° C. until they visibly detached from the flask. The cell suspension was then re-suspended in 5 mL medium and 0.5-1 mL of the cell suspension was transferred to a new flask (25 cm^2) with 7 mL culture medium. The cells were further incubated at 37° C. incubator. Cells were disposed after passage nearly 30 times in order to minimize phenotypic drift. New batches of cells were taken from liquid nitrogen storage by thawing rapidly (37° C. water bath) and re-suspension in a 25 cm^2 flask with 10 mL of culture medium. Two passages were allowed to resume normal growth. For long-term maintenance, viable cells at 60-80% confluence were detached by minimum amount of trypsin/EDTA and re-suspended in sterile filtered freezing medium (95% FBS, 5% DMSO), transferred to sterile cryogenic vials, and frozen overnight at −20° C. followed by −80° C. for 1-2 days and stored in liquid nitrogen for long term storage.
(§2) Most test compounds, including temozolomide, were prepared as stock solution (100 mM) in DMSO and stored at −20° C. for not more than 6 months.
(§3) This assay was first described in Mosmann, T., 1983, “Rapid colorimetric assay for cellular growth and survival: Application to proliferation and cytotoxicity assays”, Journal of Immunological Methods, Vol. 65, Nos. 1-2, pp. 55-63.
(§4) Glioma cell lines, SNB19 and U373, both MGMT transfected (i.e., SNB19M and U373M) and vector controls (i.e., SNB19V and U373V); colorectal carcinoma cell lines, HCT116, HT29, and DLD1; melanoma cell line, SKMEL-28; breast cell line, MCF-7; and normal human fetal lung fibroblast cell line, MRC-5; were harvested at 60-80% confluence—during the logarithmic phase of growth.
(§5) Following harvesting, cells in suspension were gently syringed through a 23 gauge needle to obtain a near-single cell suspension. The desired cell seeding densities were used and added into 96-well plates in 180 μL culture medium if only one test compound was to be added, or 160 μL if two test compounds were to be added in combination, which were allowed to attach at 37° C. (5% CO2) overnight. For the 7 day assay, the cell seeding density for different cell lines was as follows: SNB19V, SNB19M: 650 cells/well; U373V, U373M: 650 cells/well; SNB19VR, U373VR: 650 cells/well; HCT116, DLD-1, SKMEL-28, MRC-5, MCF-7: 400 cells/well.
(§6) The two peripheral lanes were used as blank wells (cell free) and filled with 200 μL of medium in order to minimise medium evaporation from the plate. A separate time zero (T0) plate was set up alongside other plates. Serial dilutions in tissue culture medium of a 100 mM stock of test compound in DMSO were prepared immediately before each assay to ten times the final concentrations required, and then 20 μL was added to each well (200 μL total media per well) to achieve final concentrations of 0.5 μM, 1 μM, 5 μM, 10 μM, 50 μM, 100 μM, 500 μM, and 1000 μM. A minimum of four wells received the same test compound concentration. […]

[2] = tested on: Melanoma SKMEL-28 (MMR proficient); assay: MTT assay for 7-day toxicity assay; details: Homo sapiens, SK-MEL-28, 168 h, Melanoma SKMEL-28 (MMR proficient); 7-day MTT; single determinations; read-out: GI50
Method: as §1, §2, §3, §4, §5, §6

[3] = tested on: Colon HT29 (MMR proficient); assay: MTT assay for 7-day toxicity assay; details: Homo sapiens, HT-29, 168 h, Colon HT29 (MMR proficient); 7-day MTT; single determinations; read-out: GI50
Method: as §1, §2, §3, §4, §5, §6

Glioma SNB19M (MGMT+) = assay: MTT assay for 7-day toxicity assay; details: Glioma SNB19M (MGMT+), 7-day MTT, single determinations
Method: as §1, with “Glioma cells were routinely cultured in Costar tissue culture flasks in RPMI 1640 liquid medium (containing 0.3 g/L L-glutamine and 2 g/L sodium bicarbonate) supplemented with 10% heat inactivated FBS (55-59° C.) for 1 hour to denature complement proteins which would otherwise evoke a cellular immune response resulting in cell lysis, 1% non-essential amino acids, 50 μg/mL gentamicin and 400 μg/mL G418 (vector selected reagent). Colorectal and melanoma cells were maintained in RPMI 1640 supplemented with 10% FBS.” left out
as §2, §4, §5
(§7) The two peripheral lanes were used as blank wells (cell free) and filled with 200 μL of medium in order to minimise medium evaporation from the plate. A separate time zero (T0) plate was set up alongside other plates. Serial dilutions in tissue culture medium of a 100 mM stock of test compound in DMSO were prepared immediately before each assay to ten times the final concentrations required, and then 20 μL was added to each well (200 μL total media per well) to achieve final concentrations of 0.5 μM, 1 μM, 5 μM, 10 μM, 50 μM, 100 μM, 500 μM, and 1000 μM. A minimum of four wells received the same test compound concentration. To control wells, including those in the T0 plate, 20 μL of medium was added. […] A separate plate treated in the same way, but free of test compound, was used as a measure of cell viability at the time of drug addition (day 0).
(§8) After incubation at 37° C., 5% CO2 for 7 days (or immediately for the day 0 plate), cell viability was quantified using the MTT assay. 50 μL of sterile filtered MIT (3-(4,5-dimethylthiazol-2-yl)-2,5-diphenyltetrazolium bromide) (2 mg/mL in phosphate buffered saline) were added to each well (final concentration 0.4 mg/mL) and the plates were re-incubated for 4 hours to allow metabolic conversion of MTT by dehydrogenases in viable cells to insoluble formazan crystals.
(§9) The intensity of absorbance is directly proportional to cell viability.

Glioma U373V (MGMT low) = assay: MTT assay for 7-day toxicity assay; details: Glioma U373V (MGMT low), 7-day MTT, single determinations
Method: as §1, with “Glioma cells were routinely cultured in Costar tissue culture flasks in RPMI 1640 liquid medium (containing 0.3 g/L L-glutamine and 2 g/L sodium bicarbonate) supplemented with 10% heat inactivated FBS (55-59° C.) for 1 hour to denature complement proteins which would otherwise evoke a cellular immune response resulting in cell lysis, 1% non-essential amino acids, 50 μg/mL gentamicin and 400 μg/mL G418 (vector selected reagent). Colorectal and melanoma cells were maintained in RPMI 1640 supplemented with 10% FBS.” left out
as §2, §4, §5, §7, §8, §9

Glioma SNB19V (MGMT−) = assay: MTT assay for 7-day toxicity assay; details: Glioma SNB19V (MGMT−), 7-day MTT, single determinations
Method: as §1, with “Glioma cells were routinely cultured in Costar tissue culture flasks in RPMI 1640 liquid medium (containing 0.3 g/L L-glutamine and 2 g/L sodium bicarbonate) supplemented with 10% heat inactivated FBS (55-59° C.) for 1 hour to denature complement proteins which would otherwise evoke a cellular immune response resulting in cell lysis, 1% non-essential amino acids, 50 μg/mL gentamicin and 400 μg/mL G418 (vector selected reagent). Colorectal and melanoma cells were maintained in RPMI 1640 supplemented with 10% FBS.” left out
as §2, §4, §5, §7, §8, §9

Glioma U373M (MGMT+) = assay: MTT assay for 7-day toxicity assay; details: Glioma U373M (MGMT+), 7-day MTT, single determinations
Method: as §1, with “Glioma cells were routinely cultured in Costar tissue culture flasks in RPMI 1640 liquid medium (containing 0.3 g/L L-glutamine and 2 g/L sodium bicarbonate) supplemented with 10% heat inactivated FBS (55-59° C.) for 1 hour to denature complement proteins which would otherwise evoke a cellular immune response resulting in cell lysis, 1% non-essential amino acids, 50 μg/mL gentamicin and 400 μg/mL G418 (vector selected reagent). Colorectal and melanoma cells were maintained in RPMI 1640 supplemented with 10% FBS.” left out
as §2, §4, §5, §7, §8, §9

Colon DLD1 = assay: MTT assay for 7-day toxicity assay; details: Homo sapiens, DLD-1, 168 h; Colon DLD1; 7-day MTT; single determinations; read-out: GI50
Method: as §1, §2, §3, §4, §5, §6

[4] = tested on: glioma MGMT− and MGMT+ cell lines; assay: MTT assay, glioma lines as a whole
From the text: as §3, §4, §5
The two peripheral lanes were used as blank wells (cell free) and filled with 200 μL of medium in order to minimise medium evaporation from the plate. A separate time zero (T0) plate was set up alongside other plates. Serial dilutions in tissue culture medium of a 100 mM stock of test compound in DMSO were prepared immediately before each assay to ten times the final concentrations required, and then 20 μL was added to each well (200 μL total media per well) to achieve final concentrations of 0.5 μM, 1 μM, 5 μM, 10 μM, 50 μM, 100 μM, 500 μM, and 1000 μM. A minimum of four wells received the same test compound concentration. To control wells, including those in the T0 plate, 20 μL of medium was added. Previous assays had been carried out to verify that cell viability was not affected by the amount of DMSO added into the test compound-treated wells. A separate plate treated in the same way, but free of test compound, was used as a measure of cell viability at the time of drug addition (day 0).
as §8, with “crystals. The medium and any unconverted MTT was aspirated, 150 μL of DMSO was added to each well, and the plates were shaken on a plate shaker (Stuart Scientific 503) to ensure complete formazan solubilisation.” for “crystals.”
The intensity of absorbance is directly proportional to cell viability. A linear relationship exists between cell number and the amount of formazan and so the mean absorbance determined for each well of the same concentration can be used as a quantitative measure of viable cells compared to the controls. A graph of absorbance against drug concentration was plotted and the test compound concentration (GI50) causing 50% inhibition of control cell growth (absorbance increase from day 0) was calculated by interpolation.

[5] = tested on: Glioma SNB19VR (MGMT−) (TMZ resistant); assay: MTT assay for 7-day toxicity assay; details: Glioma SNB19VR (MGMT−, TMZ resistant), 7-day MTT, single determinations, read-out: GI50
Method: as §1, §2, §3, §4, §5, §6

[6] = tested on: Normal Human Fetal Lung Fibroblast MRC-5; assay: MTT assay for 7-day toxicity assay; details: Normal Human Fetal Lung Fibroblast MRC-5, 7-day MTT, single determinations, read-out: GI50
Method: as §1, §2, §3, §4, §5, §6

SMILES	GI50 ([1]; Homo sapiens, HCT-116, 168 h) [µM]	GI50 [2] [µM]	GI50 [3] [µM]	GI50 (Glioma SNB19M (MGMT+); 168 h) [µM]	GI50 (Glioma SNB19M (MGMT+))	GI50 (Glioma SNB19V (MGMT−); 168 h) [µM]	GI50 (Glioma SNB19V (MGMT−))	GI50 (Colon DLD1) [µM]	GI50 (Glioma SNB19M (MGMT+); 168 h, read-out: GI50) [µM]	GI50 (Glioma SNB19M (MGMT+); read-out: GI50) [µM]	GI50 (Glioma SNB19V (MGMT−); 168 h, read-out: GI50) [µM]	GI50 (Glioma SNB19V (MGMT−); read-out: GI50) [µM]	GI50 (Glioma U373M (MGMT+); 168 h, read-out: GI50) [µM]	GI50 (Glioma U373M (MGMT+); read-out: GI50) [µM]	also measured
C[C@@H](c1ccccc1)n1nnc2c(C(N)=O)ncn2c1=O [BB-002, (S)-3-(−1-Phenylethyl)-8-carbamoylimidazotetrazin-4-one]	206	222	243	41.2	49.7 µM	35.3	34.1 µM	–	–	–	–	–	–	–	GI50 (Glioma U373V (MGMT low); 168 h): 61.6 µM; GI50 (Glioma U373V (MGMT low)): 70.7 µM; GI50 (Glioma U373M (MGMT+); 168 h): 69.6 µM; GI50 (Glioma U373M (MGMT+)): 95 µM
NC(=O)c1ncn2c(=O)n(CCc3ccccc3)nnc12 [DD-001, 4-oxo-3-phenethyl-3,4-dihydroimidazo[5,1-d][1,2,3,5]tetrazine-8-carboxamide]	302	424	498	95	70.2 µM and 92.6 µM	77	128 µM and 91.1 µM	385	–	–	–	–	–	–	–
NC(=O)Cn1nnc2c(C(N)=O)ncn2c1=O [JJ-001, 2-(8-Carbamoyl-oxoimidazo[5,1-d][1,2,3,5]tetrazin-3(4H)-yl)ethanamide]	–	–	–	–	–	–	–	–	107	83.2	37.5	38.5	86.7	58	activity in words ([4]; glioma MGMT− and MGMT+ cell lines): good activity; GI50 (Glioma U373V (MGMT low); 168 h, read-out: GI50): 56.2 µM; GI50 (Glioma U373V (MGMT low); read-out: GI50): 74.6 µM
CCOC(=O)CCn1nnc2c(C(N)=O)ncn2c1=O [LL-002, Ethyl 3-(8-carbamoyl-oxoimidazo[5,1-d][1,2,3,5]tetrazin-3(4H)-yl)propanoate]	–	–	–	–	–	–	–	–	248	261	447	288	156	131	fold less active than the acetic acid ester derivatives LL-003 and PX-016 ([4]; Table 10, glioma cell lines): > 10 fold
NC(=O)c1ncn2c(=O)n(Cc3ccco3)nnc12 [PX-004]	70.9	53.4	27.2	–	–	–	–	45.4	–	–	–	–	–	–	GI50 ([5]; 168 h): 50.1 µM; GI50 [5]: 52.5 µM; GI50 [1]: 55.6 µM; GI50 ([6]; Homo sapiens, MRC5, 168 h): 60.3 µM; GI50 [6]: 55.5 µM
